Data published in patent US20040191203A1, “Cosmetic or dermatological composition comprising n-acylaminoamide derivatives” (priority 2001, published 2004).

Legend:
[1] = biological target: T1, human leukocyte elastase (HLE) (Homo sapiens, UniProt P08246); test: anti-elastase activity relative to human leukocyte elastase, Me-OSAAPV-p-NA substrate, spectrophotometry; type: biochemical
T1 sequence (P08246 30-267): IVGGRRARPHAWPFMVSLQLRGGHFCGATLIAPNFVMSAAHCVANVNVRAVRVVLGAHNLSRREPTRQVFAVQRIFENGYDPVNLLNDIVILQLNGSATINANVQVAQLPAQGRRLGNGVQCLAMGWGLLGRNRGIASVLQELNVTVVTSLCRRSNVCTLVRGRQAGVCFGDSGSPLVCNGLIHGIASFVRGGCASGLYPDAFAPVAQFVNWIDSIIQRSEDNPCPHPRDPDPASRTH
Experimental: The anti-elastase activity of compounds according to the invention has been determined relative to human leukocyte elastase (HLE).
The test is performed as follows. […]
The inhibition % of the control elastase activity is then determined through spectrophotometry.

[2] = tested on: surviving human skins treated by human leukocyte elastase (HLE); test: ex vivo activity on fresh cuts of surviving human skins treated by HLE for 2 hours, elastic fibre morphometry; conditions: 20° C.
Experimental: The ex vivo activity of the compound in example 2 has been evaluated on surviving human skins treated by human leukocyte elastase (HLE). Fresh cuts from human skins, originating from 2 different donors, are treated for 2 hours, at 20° C., by 20 μl of a buffer solution (pH 7.4) optionally comprising 10 μg/ml of HLE and optionally 0.1% of the compound to be tested, optionally previously put in a solution in ethanol. The elastic fibres are coloured in blue using (+) catechin and are morphometrically quantified by computer assisted picture analysis. The surface percentage of average dermis occupied by the elastic fibres was evaluated this way.

[3] = tested on: surviving human skins treated by human leukocyte elastase (HLE); test: ex vivo activity on human skin fragments kept surviving 10 days in culture with HLE, elastic fibre morphometry; conditions: HLE 0.5 μg per ml of medium + 5 μl of compound at 0.2% in ethanol every other day, 37° C., 3 donors
Experimental: The ex vivo activity of the compound in example 2 has been evaluated on surviving human skins treated by human leukocyte elastase (HLE). Fragments of normal human skin, originating from 3 different donors, are placed in inserts positioned in culture wells. Some antibiotic supplemented culture medium is added in the bottom of the wells. A passage occurs through slow diffusion between both compartments by means of a porous membrane (pore size: 12 μm). The culture medium is renewed every three days. Optionally 0.5 μg of HLE per ml of culture medium are optionally added on the skin fragments. Also are added, every other day, 5 μl of the compound to be tested, previously put in a solution at 0.2% in weight in ethanol. The skins are kept surviving for 10 days at 37° C. The elastic fibres are coloured in blue using (+) catechin and are morphometrically quantified by computer assisted picture analysis. The surface percentage of average dermis occupied by the elastic fibres was evaluated this way.

[4] = tested on: surviving UVA irradiated human skins (8 J/cm^2); test: activity on surviving UVA irradiated human skins, morphometry of elastic fibres and collagen; conditions: UVA 8 J/cm^2 + 5 μl of compound at 0.2% in ethanol every two days; 7 days, 37° C.; four donors
Experimental: The activity of the compound in example 2 has been evaluated on surviving UVA irradiated human skins (8 J/cm^2). Fragments of normal human skin, originating from four different donors, are placed in inserts positioned in culture wells. Some antibiotic supplemented culture medium is added in the bottom of the wells. A passage occurs through slow diffusion between both compartments by means of a porous membrane (pore size: 12 μm). The culture medium is renewed every three days. On the skin fragments, every two days, are added 5 μl of the compound to be tested, previously put in a solution at 0.2% in ethanol. The skins are kept surviving for 7 days at 37° C. The skins are irradiated once at 8 J/cm^2 at 37° C. (Vilbert-Lourmat lamp, RMX-3W). The elastic fibres are coloured in blue using (+) catechin and are morphometrically quantified by computer assisted picture analysis. The surface percentage of average dermis occupied by the elastic fibres was evaluated this way.

Row | SMILES | Inhibition % of the control elastase activity ([1]; concentration of compound A 0.2%) [%] | inhibition of the elastase activity (in words) ([1]; even in a low amount) | Surface % occupied by the elastic fibres ([2]; Skin 1, HLE 10 μg/ml + 0.1% compound) [%] | Surface % occupied by the elastic fibres ([2]; Skin 2, HLE 10 μg/ml + 0.1% compound) [%] | Surface % occupied by the elastic fibres [3] [%] | Morphometric analysis of the collagen (superficial dermis) [4] [%] | Morphometric analysis of the elastic fibres (superficial dermis) [4] [%] | Inhibition % of the control elastase activity ([1]; compound concentration 0.1%, HLE 40 milli-units per ml, 37° C., 60 minutes) [%]
1 | CC(=O)N(c1cccc(C(F)(F)F)c1)C(C(=O)NCC(=O)O)C(C)C (centres unmarked) [Compound A, {2-[acetyl-(3-trifluoromethyl-phenyl)-amino]-3-methyl-butyrylamino}acetic acid] | 68 | strong inhibition | 13.95 | 11.85 | 7.1 | 92 | 6.8 | –
2 | CCOC(=O)CNC(=O)C(C(C)C)N(Cc1ccccc1)C(=O)CP(=O)(OCC)OCC (centres unmarked) [Compound B, ethyl (2-{benzyl-[(diéethoxyphosphoryl)-acetyl]-amino}-3-méthylbutyrylamino) acetate] | – | – | – | – | – | – | – | 17
